Assay results from patent US20110218103A1, “Fluoroalkyl-substituted 2-amidobenzimidazoles” (BAYER CROPSCIENCE AG, priority 2010, published 2011).

Experiments:
Assay in all cases: Drought stress test on crop plants, spray application in greenhouse, visual damage rating
Assay type in all cases: in vivo
Details in all cases: mean of three results
Brassica napus (BRSNS) = system: Brassica napus (BRSNS)
Protocol: Seeds of monocotyledonous and dicotyledonous crop plants were placed in sandy loam in wood-fiber pots, covered with soil and cultivated in a greenhouse under good growth conditions. The test plants were treated at the early leaf stage (BBCH10-BBCH13). To ensure uniform water supply before commencement of stress, the potted plants were supplied with the maximum amount of water immediately beforehand by dam irrigation and, after application, transferred in plastic inserts in order to prevent subsequent, excessively rapid drying. The inventive compounds, formulated in the form of wettable powders (WP), wettable granules (WG), suspension concentrates (SC) or emulsion concentrates (EC), were sprayed onto the green parts of the plants as an aqueous suspension at an equivalent water application rate of 600 l/ha with addition of 0.2% wetting agent (agrotin). Substance application was followed immediately by stress treatment of the plants (cold or drought stress). For cold stress treatment, the plants were kept under the following controlled conditions: Drought stress was induced by gradual drying out under the following conditions: “day”: 14 hours with illumination at 26° C. “night”: 10 hours without illumination at 18° C. The duration of the respective stress phases was guided mainly by the state of the untreated, stressed control plants and thus varies from crop to crop. It was ended (by re-irrigating or transfer to a greenhouse with good growth conditions) as soon as irreversible damage is observed on the untreated, stressed control plants. In the case of dicotyledonous crops, for example oilseed rape and soya, the duration of the drought stress phase was between 3 and 5 days, in the case of monocotyledonous crops, for example wheat, barley or corn, between 6 and 10 days. The duration of the cold stress phase varied between 12 and 14 days. The end of the stress phase was followed by an approx. 5-7-day recovery phase, during which the plants were once again kept under good growth conditions in a greenhouse. In order to rule out any influence of the effects observed by any fungicidal action of the test compounds, it was additionally ensured that the tests proceed without fungal infection and without infection pressure. After the recovery phase had ended, the intensities of damage were rated visually compared to untreated, unstressed controls of the same age (in the case of drought stress) or the same growth stage (in the case of cold stress). The intensity of damage was first assessed as a percentage (100%=plants have died, 0%=like control plants). These values were then used to calculate the efficacy of the test compounds (=percentage reduction in the intensity of damage as a result of substance application) by the following formula: [formula] EF: efficacy (%) DVus: damage value of the untreated, stressed control DVts: damage value of the plants treated with test compound The tables below list mean values in each case from three results of the same test. Effects of selected compounds of the formula (I) under drought stress: BRSNS=Brassica napus

Zea mays (ZEAMX) = system: Zea mays (ZEAMX)
Protocol: Seeds of monocotyledonous and dicotyledonous crop plants were placed in sandy loam in wood-fiber pots, covered with soil and cultivated in a greenhouse under good growth conditions. The test plants were treated at the early leaf stage (BBCH10-BBCH13). To ensure uniform water supply before commencement of stress, the potted plants were supplied with the maximum amount of water immediately beforehand by dam irrigation and, after application, transferred in plastic inserts in order to prevent subsequent, excessively rapid drying. The inventive compounds, formulated in the form of wettable powders (WP), wettable granules (WG), suspension concentrates (SC) or emulsion concentrates (EC), were sprayed onto the green parts of the plants as an aqueous suspension at an equivalent water application rate of 600 l/ha with addition of 0.2% wetting agent (agrotin). Substance application was followed immediately by stress treatment of the plants (cold or drought stress). For cold stress treatment, the plants were kept under the following controlled conditions: Drought stress was induced by gradual drying out under the following conditions: “day”: 14 hours with illumination at 26° C. “night”: 10 hours without illumination at 18° C. The duration of the respective stress phases was guided mainly by the state of the untreated, stressed control plants and thus varies from crop to crop. It was ended (by re-irrigating or transfer to a greenhouse with good growth conditions) as soon as irreversible damage is observed on the untreated, stressed control plants. In the case of dicotyledonous crops, for example oilseed rape and soya, the duration of the drought stress phase was between 3 and 5 days, in the case of monocotyledonous crops, for example wheat, barley or corn, between 6 and 10 days. The duration of the cold stress phase varied between 12 and 14 days. The end of the stress phase was followed by an approx. 5-7-day recovery phase, during which the plants were once again kept under good growth conditions in a greenhouse. In order to rule out any influence of the effects observed by any fungicidal action of the test compounds, it was additionally ensured that the tests proceed without fungal infection and without infection pressure. After the recovery phase had ended, the intensities of damage were rated visually compared to untreated, unstressed controls of the same age (in the case of drought stress) or the same growth stage (in the case of cold stress). The intensity of damage was first assessed as a percentage (100%=plants have died, 0%=like control plants). These values were then used to calculate the efficacy of the test compounds (=percentage reduction in the intensity of damage as a result of substance application) by the following formula: [formula] EF: efficacy (%) DVus: damage value of the untreated, stressed control DVts: damage value of the plants treated with test compound The tables below list mean values in each case from three results of the same test. Effects of selected compounds of the formula (I) under drought stress: ZEAMX=Zea mays

[1] = system: Triticum aestivum (TRZAS)
Protocol: Seeds of monocotyledonous and dicotyledonous crop plants were placed in sandy loam in wood-fiber pots, covered with soil and cultivated in a greenhouse under good growth conditions. The test plants were treated at the early leaf stage (BBCH10-BBCH13). To ensure uniform water supply before commencement of stress, the potted plants were supplied with the maximum amount of water immediately beforehand by dam irrigation and, after application, transferred in plastic inserts in order to prevent subsequent, excessively rapid drying. The inventive compounds, formulated in the form of wettable powders (WP), wettable granules (WG), suspension concentrates (SC) or emulsion concentrates (EC), were sprayed onto the green parts of the plants as an aqueous suspension at an equivalent water application rate of 600 l/ha with addition of 0.2% wetting agent (agrotin). Substance application was followed immediately by stress treatment of the plants (cold or drought stress). For cold stress treatment, the plants were kept under the following controlled conditions: Drought stress was induced by gradual drying out under the following conditions: “day”: 14 hours with illumination at 26° C. “night”: 10 hours without illumination at 18° C. The duration of the respective stress phases was guided mainly by the state of the untreated, stressed control plants and thus varies from crop to crop. It was ended (by re-irrigating or transfer to a greenhouse with good growth conditions) as soon as irreversible damage is observed on the untreated, stressed control plants. In the case of dicotyledonous crops, for example oilseed rape and soya, the duration of the drought stress phase was between 3 and 5 days, in the case of monocotyledonous crops, for example wheat, barley or corn, between 6 and 10 days. The duration of the cold stress phase varied between 12 and 14 days. The end of the stress phase was followed by an approx. 5-7-day recovery phase, during which the plants were once again kept under good growth conditions in a greenhouse. In order to rule out any influence of the effects observed by any fungicidal action of the test compounds, it was additionally ensured that the tests proceed without fungal infection and without infection pressure. After the recovery phase had ended, the intensities of damage were rated visually compared to untreated, unstressed controls of the same age (in the case of drought stress) or the same growth stage (in the case of cold stress). The intensity of damage was first assessed as a percentage (100%=plants have died, 0%=like control plants). These values were then used to calculate the efficacy of the test compounds (=percentage reduction in the intensity of damage as a result of substance application) by the following formula: [formula] EF: efficacy (%) DVus: damage value of the untreated, stressed control DVts: damage value of the plants treated with test compound The tables below list mean values in each case from three results of the same test. Effects of selected compounds of the formula (I) under drought stress: TRZAS=Triticum aestivum

Compound | EF (BRSNS), efficacy = percentage reduction in the intensity of damage (Brassica napus (BRSNS); 25 g/ha) | EF (TRZAS), efficacy = percentage reduction in the intensity of damage ([1]; 250 g/ha) | EF (TRZAS), efficacy = percentage reduction in the intensity of damage ([1]; 25 g/ha) | EF (ZEAMX), efficacy = percentage reduction in the intensity of damage (Zea mays (ZEAMX); 250 g/ha) | EF (ZEAMX), efficacy = percentage reduction in the intensity of damage (Zea mays (ZEAMX); 25 g/ha) | also measured
CCCCS(CCCC)=NC(=O)c1cccc2[nH]c(C(F)(F)F)nc12 [1-5, N-(dibutyl-lambda^4-sulfanylidene)-2-(trifluoromethyl)-1H-benzimidazole-4-carboxamide] | >5% | >5% | – | – | – | EF (ZEAMX), efficacy = percentage reduction in the intensity of damage (Zea mays (ZEAMX); 50 g/ha): >5%
CCCCn1c(C(F)(F)F)nc2c(C(N)=O)cccc21 [1-69] | >5% | – | >5% | – | – | –
NC(=O)c1cc(F)cc2[nH]c(C(F)C(F)(F)F)nc12 (stereo not drawn) [5-8] | – | – | >5% | – | – | EF (BRSNS), efficacy = percentage reduction in the intensity of damage (Brassica napus (BRSNS); 250 g/ha): >5%
CCCCOC(F)(F)c1nc2c(C(N)=O)cccc2[nH]1 [1-50] | >5% | >5% | – | >5% | – | –
COCCOC(F)(F)c1nc2c(C(N)=O)cccc2[nH]1 [1-52] | >5% | – | >5% | – | >5% | –
CCC(C)COC(F)(F)c1nc2c(C(N)=O)cccc2[nH]1 (stereo not drawn) [1-90] | – | >5% | – | >5% | – | –
C=CCCOC(F)(F)c1nc2c(C(N)=O)cccc2[nH]1 [1-89] | – | – | – | >5% | – | EF (BRSNS), efficacy = percentage reduction in the intensity of damage (Brassica napus (BRSNS); 250 g/ha): >5%
NC(=O)c1cccc2[nH]c(C(F)(F)OCC3CC3)nc12 [1-84] | – | – | – | – | >5% | –
COC(F)(F)c1nc2c(C(N)=O)cccc2[nH]1 [1-6, 2-[difluoro(methoxy)methyl]-1H-benzimidazole-4-carboxamide] | >5% | – | >5% | – | >5% | –
